Test results: patent publication US12391673B2, “LANCL ligands” (NImmune Biopharma, Inc., priority 2020, dated 2025)

Key:
[1] = system: NOD model of type 1 diabetes; assay: NOD mouse model of type 1 diabetes; type: in vivo, Non-obese diabetic (NOD) ShiLt mice; details: 10 mg/kg oral gavage daily, vs vehicle
Procedure: NOD model. Non-obese diabetic (NOD) ShiLt mice were used in this study. NOD mice have numerous genetic mutations that enable the spontaneous onset of hyperglycemia and pancreatic pathologies associated with T1D. Mice entered into the experiment at 9 weeks of age and were monitored for a 12-week period. Mice were treated daily with vehicle or 10 mg/kg BT-108-1 by oral gavage. Once weekly blood samples were collected from the tail vein to be tested for glucose concentration by glucometer.

DSS colitis = assay: DSS model of colitis; type: in vivo, mice; details: 10 mg/kg once daily oral gavage, 7 days of DSS, vs vehicle
Procedure: DSS model. Mice were given DSS in drinking water for seven days to induce disruption of the epithelial layer. At project initiation, mice were 8 weeks of age and began dosing 24 hours after being placed on DSS. BT-108-1 was prepared within a 0.5% methylcellulose (12-15 cP) solution. Dosage used was 10 mg/kg delivered once daily. Dosage was calculated based off mean body weights for each gender. Oral dosage was delivered by orogastric gavage of dosage in 0.2 mL volume.
Flow Cytometry. Colons were collected into RPMI/FBS buffer containing collagenase (300 U/mL) and DNase (50 U/mL) for digestion. Tissues were digested for 60 minutes under stirring at 37° C. Resultant cellular suspensions were filtered through 100 μm strainers, centrifuged (300× g, 8 min), and washed in fresh RPMI. Following filtration of the resulting single cell suspensions, immune cells were purified by Percoll gradient of cell-containing 40% Percoll overlayed onto 70% Percoll solution. After centrifugation, interphase was collected and washed to obtain enriched colonic lamina propria cell fractions. Cells were labeled with mixtures of extracellular (CD45, CD3, CD4, CD8, CD19, NK1.1, F4/80, CD11b, Gr1) antibodies in a sequential live staining in 96-well plates. Data was acquired using a FACS Celesta flow cytometer with FACSDiva software.
Histopathology. Colonic tissues were fixed in 10% formalin, paraffin embedded, and H&E stained. Sections were examined using an Olympus microscope. Histological score was assessed through a composite scoring system of leukocytic infiltration, epithelial erosion, and mucosal thickness.

CD4+ T cells = assay: Immunological screening in vitro in CD4+ T cells (flow cytometry); type: cell-based, C57BL/6 mice; details: 100 nanomolar, 24 h, anti-CD3/CD28, PMA and ionomycin last 6 h, relative to vehicle control
Source text: Cell culture. Spleens were excised from C57BL/6 mice. Spleens were crushed between the frosted ends of microscope slides and filtered to provide a cellular suspension. Red blood cells were lysed through hypotonic lysis. Remaining cells were washed and filtered. CD4+ T cells were enriched within the suspension using magnetic sorting based negative selection. Cells were collected and plated within 96 well plates coated with anti-CD3/CD28 and cultured in the presence of BT-108-1, BT-108-2, BT-108-6, BT-108-8, BT-108-12, and BT-108-15 at 0 or 100 nanomolar for 24 h. During the last 6 h of culture, cells were stimulated with phorbol 12-myristate-13-acetate (PMA) and ionomycin.
Immunological analysis. Cells were collected from 96 well plates and stained with a cocktail of antibodies for immunophenotyping by flow cytometry. Culture supernatant was collected and assayed for cytokine concentrations by cytometric bead array. Data was captured on a BD FACS Celesta and analyzed using FACSDiva.

[2] = system: imiquimod-induced psoriasis; assay: Imiquimod induced model of psoriasis; type: in vivo, C57BL/6 mice; details: 10 mg/kg oral gavage daily, one week, vs vehicle
Procedure: IMQ-induced model. C57BL/6 mice were anesthetized, shaved, and briefly exposed to depilatory cream on the surface of the back. Mice were given three days to recover from the procedure prior to entry to the study. After 3 days, mice were challenged with approximately 60 mg of […] imiquimod cream daily by spreading cream over the shaved area. Mice were scored daily for erythema, scaling and skin thickness. Treatment with BT-108-1 (10 mg/kg) or vehicle control occurred by oral gavage. Dosage was calculated based off mean body weights.
Analysis. Spleens were excised and crushed by microscope slides. Red blood cells were hypotonically lysed from the resultant suspension. Samples were filtered, washed and centrifuged prior to staining. Th1 (Tbet+ IFNγ+), Th17 (RORγT+ IL17+), Treg (CD25+ FOXP3+ IL10+) and Tfh (BCL6+ IL21+) were quantified from CD3+ CD4+ T cells by flow cytometry.

[3] = system: Western diet model of nonalcoholic steatohepatitis; assay: Western diet / CCl4 model of nonalcoholic steatohepatitis; type: in vivo, C57BL/6 mice; details: 5 mg/kg oral gavage daily, after 4 weeks of treatment, vs vehicle
Procedure: WD-induced model. C57BL/6 mice were placed on a Western diet consisting of a high-fat diet with addition of 23.1 g/L d-fructose and 18.9 g/L d-glucose to drinking water and weekly intraperitoneal injections of 0.2 μL/g CCl4 to induce steatohepatitis. Matching groups on control diet were included. Mice were treated daily, in a therapeutic manner after 8 weeks of diet. Treatment with BT-108-1 (5 mg/kg) or vehicle control occurred by oral gavage. Dosage was calculated based off mean body weights.
Analysis. Livers were excised and weighed. Sections of livers were excised and stored in buffered formalin for Sirius red staining or snap frozen for assessment of triglycerides. Severity of fibrosis was assessed by scoring of Sirius red stained liver.

[4] = system: collagen induced arthritis; assay: Collagen induced model of arthritis; type: in vivo, C57Bl/6 mice; details: 5 mg/kg oral daily for four weeks, vs vehicle
Procedure: Models. Six-week-old C57Bl/6 mice were immunized with 200 μg of chicken collagen emulsified in complete Freund's adjuvant by intradermal injections at the base of the tail. Mice were treated with 5 mg/kg of BT-108-1 or vehicle, daily for four weeks.
Immunological analysis. Spleens were excised from mice. Tissues were crushed and filtered to provide a cellular suspension. Red blood cells were lysed. Cells were labeled with mixtures of extracellular (CD45, CD3, CD4, CD8, B220, CD19, CD138, CD21, CD24, CD1d, CD11b, CD86, CD80) and intracellular (BCL6, IL21, IL10, TNF) antibodies in a sequential live staining in 96-well plates in preparation for flow cytometry. Data was captured on a BD FACS Celesta and analyzed using FACSDiva.

Compound	proportion of mice that developed hyperglycemia ([1]; by the end of the study)	fasting blood glucose levels ([1]; throughout the 12-week treatment period)	Th17 cells (CD4+ IL17+) in the colonic lamina propria (DSS colitis)	histopathology score (colon) (DSS colitis)	neutrophils in the colonic lamina propria (DSS colitis)	IFNγ production / IFNγ+ CD4+ T cells (CD4+ T cells)	TNFα production / TNF+ CD4+ T cells (CD4+ T cells)	Th17 cells (CD4+ IL17+) in the spleen [2]	severity of disease (composite scoring of skin) [2]	body weight normalized liver weights [3]	fibrotic scoring (Sirius red stained liver) [3]	liver triglycerides [3]	proportion of IL-17+ CD4+ T cells in the spleens [4]	proportion of TNF+ immune cells in the spleens [4]
O=C(Nc1cncc(-c2cnnc3ccccc23)c1)C(O)(c1ccccc1)c1ncc[nH]1 (stereo not drawn) [BT-108-1, N-(5-(cinnolin-4-yl)pyridin-3-yl)-2-hydroxy-2-(1H-imidazol-2-yl)-2-phenylacetamide]	lower proportion	lower	decreased	decreased	decreased	significant reduction	significant reduction	reduced	reduced	reduced	reduced	reduced	significantly reduced	significantly reduced
COc1cccc(C(O)(C(=O)Nc2cncc(-c3cnnc4ccccc34)c2)c2ncc[nH]2)c1 (stereo not drawn) [BT-108-12, N-(5-(cinnolin-4-yl)pyridin-3-yl)-2-hydroxy-2-(1H-imidazol-2-yl)-2-(3-methoxyphenyl)acetamide]						significant reduction	significant reduction							
O=C(Nc1cncc(-c2cnnc3ccc(C(F)(F)F)cc23)c1)C(O)(c1ccccc1)c1ncc[nH]1 (stereo not drawn) [BT-108-15, N-(5-(6-trifluoromethylcinnolin-4-yl)pyridin-3-yl)-2-hydroxy-2-(1H-imidazol-2-yl)-2-phenylacetamide]						significant reduction	significant reduction							
